# Test results from publication PMC7044277 (Nature Communications, 2020).
# Values joined by “and” are separate entries in the source; they are usually repeats but may differ in a detail not shown here. Equal values may be shown once.
# Tests used:
# 5HT1F = target: T1, 5HT1F (Homo sapiens, UniProt P30939); test: β-arrestin2 recruitment (Tango); assay type: cell-based; settings: for β-arrestin2 recruitment response, agonist mode (single replicate values): Fig_S10j; for Fig_S10j dose-response, drug alone (agonist mode), β-arrestin2 recruitment: single replicate values
# T1 construct: expressed in transfected cells; host or cells: HTLA cells expressing TEV-fused β-arrestin2
# T1 sequence (P30939 1-366): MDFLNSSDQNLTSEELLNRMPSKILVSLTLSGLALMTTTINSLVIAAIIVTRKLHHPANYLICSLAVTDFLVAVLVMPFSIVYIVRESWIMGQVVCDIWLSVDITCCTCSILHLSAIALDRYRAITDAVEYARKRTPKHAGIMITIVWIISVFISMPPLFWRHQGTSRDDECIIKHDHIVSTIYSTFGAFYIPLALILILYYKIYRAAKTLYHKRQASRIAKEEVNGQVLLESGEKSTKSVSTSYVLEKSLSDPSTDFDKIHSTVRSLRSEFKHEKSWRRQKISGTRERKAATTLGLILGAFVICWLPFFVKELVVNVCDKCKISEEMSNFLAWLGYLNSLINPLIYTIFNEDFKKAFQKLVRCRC
# 320 non-olfactory GPCRs = assay type: cell-based; design: GPCRome screening signal at PTGIR / GPCRome screening signal at PTH1R / GPCRome screening signal at PTH2R / GPCRome screening signal at QRFP / GPCRome screening signal at RXFP2 / GPCRome screening signal at RXFP3 / GPCRome screening signal at RXFP4 / GPCRome screening signal at S1PR2 / GPCRome screening signal at S1PR3 / GPCRome screening signal at S1PR4 / GPCRome screening signal at S1PR5 / GPCRome screening signal at SCTR / GPCRome screening signal at SSTR2 / GPCRome screening signal at SSSTR / GPCRome screening signal at SSTR4 / GPCRome screening signal at SSTR5 / GPCRome screening signal at SUCNR1 / GPCRome screening signal at TA1 / GPCRome screening signal at TAAR2 / GPCRome screening signal at TAAR5 / GPCRome screening signal at TAAR6 / GPCRome screening signal at TAAR8 / GPCRome screening signal at TACR1 / GPCRome screening signal at TACR2 / GPCRome screening signal at TACR3 / GPCRome screening signal at TBXA2R / GPCRome screening signal at TSHR / GPCRome screening signal at UTS2R / GPCRome screening signal at VIPR2 / GPCRome screening signal at GPR68 no V2 Tail / GPCRome screening signal at GRM2 / GPCRome screening signal at GRM3: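 fold over basal response of each receptor without drug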; settings: Fig_5f, single replicate values
SMILES,"β-arrestin2 recruitment response, agonist mode (single replicate values) (5HT1F; Log[Drug] -8)","β-arrestin2 recruitment response, agonist mode (single replicate values) (5HT1F; Log[Drug] -8.52)","β-arrestin2 recruitment response, agonist mode (single replicate values) (5HT1F; Log[Drug] -9)","β-arrestin2 recruitment response, agonist mode (single replicate values) (5HT1F; Log[Drug] -9.52)","β-arrestin2 recruitment response, agonist mode (single replicate values) (5HT1F; Log[Drug] -10)","β-arrestin2 recruitment response, agonist mode (single replicate values) (5HT1F; Log[Drug] -10.52)","β-arrestin2 recruitment response, agonist mode (single replicate values) (5HT1F; Log[Drug] -11)","β-arrestin2 recruitment response, agonist mode (single replicate values) (5HT1F; Log[Drug] -11.52)","β-arrestin2 recruitment response, agonist mode (single replicate values) (5HT1F; Log[Drug] -12)","Fig_S10j dose-response, drug alone (agonist mode), β-arrestin2 recruitment (5HT1F; Log[Drug] -5)","Fig_S10j dose-response, drug alone (agonist mode), β-arrestin2 recruitment (5HT1F; Log[Drug] -5.52)","Fig_S10j dose-response, drug alone (agonist mode), β-arrestin2 recruitment (5HT1F; Log[Drug] -6)","Fig_S10j dose-response, drug alone (agonist mode), β-arrestin2 recruitment (5HT1F; Log[Drug] -6.52)","Fig_S10j dose-response, drug alone (agonist mode), β-arrestin2 recruitment (5HT1F; Log[Drug] -7)","Fig_S10j dose-response, drug alone (agonist mode), β-arrestin2 recruitment (5HT1F; Log[Drug] -7.52)",GPCRome screening signal at GPR68 no V2 Tail (320 non-olfactory GPCRs; receptor GPR68 no V2 Tail),GPCRome screening signal at QRFP (320 non-olfactory GPCRs; receptor QRFP),GPCRome screening signal at SSSTR (320 non-olfactory GPCRs; receptor SSSTR)
NCCc1c[nH]c2ccc(O)cc12 [serotonin],-3.452 and 0.8129 and -0.7741 and 0.7081 and -0.3166,1.467 and -0.5936 and -0.6771 and -0.2347 and -1.695 and -2.24 and -2.059 and -1.682 and -0.1562 and 2.169 and 0.8707 and -1.81,-0.04426 and -0.9855 and -1.843 and -0.9137 and -1.161 and -1.413 and 1.14 and -2.447 and -1.948 and 1.946 and -0.5 and -0.1377,-2.101 and 2.6714 and -0.3744 and -0.1804 and 3.084 and -0.3427 and -1.809 and -0.4001 and 2.85 and -0.1339 and -0.298,-0.8375 and -0.7488 and -1.773 and 1.74 and -2.24 and -1.559 and -0.2741 and -1.133 and -0.7969 and 0.416 and -0.2133 and -1.1997,-2.914 and -1.511 and -1.366 and -1.154 and -2.628 and -0.5924 and -0.6184 and 5.324 and 0.8942 and 0.1831 and -0.2458 and -1.109,4.606 and -2.13 and -1.057 and 0.00776 and -2.261 and -1.2903 and -0.3379 and -1.603 and 0.8607 and 0.8858 and 0.4773 and -0.3843,-1.978 and -2.064 and -1.769 and 3.255 and 2.53 and 1.832 and 0.0271 and 2.781 and -0.9914 and 1.71 and -0.0711 and -0.3911,-1.651 and 2.46 and -1.762 and -0.6984 and -0.5958 and -0.3302 and -0.006376 and -1.878 and -2.439 and 3.47 and -0.3101 and 0.7769,60.4606 and 65.0002 and 90.3142 and 57.9444 and 78.7631 and 57.8244 and 78.5234 and 70.8275 and 63.3071,68.8966 and 66.6667 and 38.5966 and 34.7166 and 67.3748 and 41.3918 and 50.0717 and 43.7042 and 56.4145 and 60.2307 and 56.8071,65.3117 and 41.5532 and 32.9512 and 18.8414 and 35.6041 and 33.2006 and 38.6085 and 22.7128 and 20.6455 and 38.0393 and 43.4213 and 39.1952,37.7864 and 17.7453 and 10.6352 and 8.195 and 10.8807 and 16.9203 and 24.2636 and 7.26 and 7.434 and 25.9629 and 24.0976 and 19.2564,0.08171 and 0.8827 and 2.8945 and 3.486 and 0.8409 and 1.495 and 3.165 and 2.979 and 1.237 and 11.4622 and 7.762 and 4.191,-1.661 and -1.926 and 1.238 and 3.081 and -2.387 and 1.699 and 4.498 and -1.4313 and 5.445 and 5.244 and 1.302 and 0.4992,–,–,–
CCOc1ccccc1CCC(C)NCC1(O)CCCCC1.Cl (racemic) [Fig_5f],–,–,–,–,–,–,–,–,–,–,–,–,–,–,–,1.613 and 0.9285 and 0.7993 and 0.365,1.818 and 1.297 and 0.5847 and 0.9504,1.07 and 0.3317 and 0.4095 and 0.9006
